The target of test [1] is T1, wild type GPR17 (Homo sapiens, UniProt Q13304). Nature of the test: FAC-MS screening on GPR17-IAM-I column. In kind it is binding. Particulars: for t/tc × 100, percentage of breakthrough time with respect to cangrelor / t (min), breakthrough time of the ligand with the immobilized GPR17 / binding class from FAC-MS breakthrough: column GPR17-IAM-I; for t (min), breakthrough time of the ligand with the immobilized GPR17: each 1 µM, single ranking experiment; for binding class from FAC-MS breakthrough: relative to cangrelor, MRS 2179 and UDP.

Test [2] concerns the target T1, wild type GPR17. Nature of the test: FAC-MS screening on GPR17-IAM-II column. Particulars: Library A; for breakthrough time GPR17-IAM-II (Table 5): 1 µM each; for breakthrough time GPR17-IAM-II (Table 5) / t (min), breakthrough time: column GPR17-IAM-II (19.5 million cells); for t/tC × 100: column GPR17-IAM-II; for t (min), breakthrough time: single ranking experiment. In kind it is binding.

In test [3] the target is mutated GPR17 receptor (Arg255Ile) (Homo sapiens, UniProt Q13304, R283I). Nature of the test: FAC-MS screening on mutated GPR17-IAM column. Particulars: Library A, mutated GPR17-IAM column (19.5 million cells); for breakthrough time Mutated GPR17-IAM (Table 5): 1 µM each. In kind it is binding.
Test [4] concerns the target T1, wild type GPR17. Particulars: cited from earlier work.
In test [5] the target is R255I mutated GPR17 receptor (Homo sapiens, UniProt Q13304, R283I). Nature of the test: [35S]GTPγS binding functional assay, 1321N1 cells expressing mutated GPR17. In kind it is biochemical. Particulars: [35S]GTPγS EC50/IC50, P < 0.05 for antagonists. A general note: GTPγS resists hydrolysis and so accumulates on activated G proteins.
Test [6] concerns the target T1, wild type GPR17. Nature of the test: [35S]GTPγS binding functional assay, 1321N1 cells expressing wild-type GPR17. It is filed as biochemical.
The subject of another test is P2Y receptors. The settings on record: as listed in Table 1; cited from earlier work.

Data on eleven compounds can be found in publication PMC6201305 (Journal of medicinal chemistry, 2010).

Molecules are shown by their SMILES. “And” between values parts separate entries of the source, which are not always exact repeats. Identical values can stand only once.

T1 sequence (Q13304 29-367): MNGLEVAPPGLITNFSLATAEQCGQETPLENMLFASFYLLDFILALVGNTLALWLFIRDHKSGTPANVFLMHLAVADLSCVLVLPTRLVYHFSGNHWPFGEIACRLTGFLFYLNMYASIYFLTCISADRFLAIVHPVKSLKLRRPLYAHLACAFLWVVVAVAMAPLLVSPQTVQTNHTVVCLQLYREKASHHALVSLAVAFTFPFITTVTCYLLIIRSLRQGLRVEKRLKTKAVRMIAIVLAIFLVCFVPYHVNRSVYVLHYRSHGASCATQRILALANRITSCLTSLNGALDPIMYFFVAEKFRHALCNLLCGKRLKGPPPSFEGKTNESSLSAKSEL
Sequence of R255I mutated GPR17 receptor (Q13304 29-367 R283I): as the sequence (Q13304 29-367) above, with R255I counted along it
Sequence of mutated GPR17 receptor (Arg255Ile) (Q13304 29-367 R283I): as the sequence (Q13304 29-367) above, with R255I counted along it

For `CSCCNc1nc(SCCC(F)(F)F)nc2c1ncn2[C@@H]1O[C@H](COP(=O)([O-])OP(=O)([O-])C(Cl)(Cl)P(=O)([O-])[O-])[C@@H](O)[C@H]1O.[Na+].[Na+].[Na+].[Na+]` [Cangrelor, cangrelor, reference compound], the “t/tc × 100, percentage of breakthrough time with respect to cangrelor” value (“t/tc × 100, percentage” below) on wild type GPR17 [1] (Library A mixture) came out at 100.00%. In addition, at wild type GPR17 [1] (Library B mixture), the “t/tc × 100, percentage” value is 100.00% and the “t (min), breakthrough time of the ligand with the immobilized GPR17” value (“t (min), breakthrough time of the ligand” below) was determined as 12.20 min. In addition, on wild type GPR17 [2], the “breakthrough time GPR17-IAM-II (Table 5)” value came to 10.60; the “t/tC × 100” value came out at 100.00%; the “t (min), breakthrough time” value is 10.60 min and 10.6 min. Also, in test [3], the “breakthrough time Mutated GPR17-IAM (Table 5)” value was determined as 13.16 and the “t (min), breakthrough time” value came out at 13.16 min. Also, the “profile at GPR17” value on wild type GPR17 [4] is recorded as “antagonists”. The “change in affinity toward mutated vs wild type receptor” value (from here on “change in affinity toward mutated”) in test [5] is listed as “significant increase in affinity”.
As for `N.N.N.N.Nc1nc(C#Cc2ccccc2)nc2c1ncn2[C@@H]1O[C@H](COP(=O)(O)OP(=O)(O)OP(=O)(O)O)[C@@H](O)[C@H]1O` [Compound 4], on wild type GPR17 [1] (Library A mixture), the “t/tc × 100, percentage” value is recorded as 120.37%. Besides, at wild type GPR17 [1], the “binding class from FAC-MS breakthrough” value is “high binding candidates”. In addition, the “Kd value hypothesized from the chromatographic data” value on wild type GPR17 [1] (elutes after cangrelor) is given as “subnanomolar”. Further, at wild type GPR17 [2], the “breakthrough time GPR17-IAM-II (Table 5)” value was 13.07; the “t/tC × 100” value is on record as 123.30%; the “t (min), breakthrough time” value was 13.07 min. Further, the “pharmacological profile (agonist/antagonist) in [35S]GTPγS binding” value at wild type GPR17 [6] (wild-type GPR17) is recorded as “agonist profile”. Further, in test [3], the “breakthrough time Mutated GPR17-IAM (Table 5)” value was determined as 16.07 and the “t (min), breakthrough time” value is given as 16.07 min. For the same compound, the pharmacology result in the test with P2Y receptors is “P2Y1,12antogonist”. Also, in test [5], the “change in affinity toward mutated” value is reported as “a trend toward an increased affinity”.
Regarding `CNc1ncnc2c1ncn2[C@@H]1O[C@H](COP(=O)(O)OP(=O)(O)OP(=O)(O)O)[C@@H](O)[C@H]1O.N.N.N.N` [Compound 5], at wild type GPR17 [2], the “breakthrough time GPR17-IAM-II (Table 5)” value is on record as 3.69; the “t/tC × 100” value is on record as 34.81%; the “t (min), breakthrough time” value is recorded as 3.69 min. For the same compound, the “breakthrough time Mutated GPR17-IAM (Table 5)” value in test [3] came out at 4.08.
In the case of `N.N.N.N.O=P(O)(O)OP(=O)(O)OP(=O)(O)OC[C@H]1O[C@@H](n2cnc3c(NC4CCCC4)ncnc32)[C@H](O)[C@@H]1O` [Compound 6], the “t/tc × 100, percentage” value at wild type GPR17 [1] (Library A mixture) was 49.90%. At wild type GPR17 [2], the “breakthrough time GPR17-IAM-II (Table 5)” value was found to be 5.67; the “t/tC × 100” value was found to be 53.49%; the “t (min), breakthrough time” value is given as 5.67 min. For the same compound, at wild type GPR17 [6] (wild-type GPR17), the “pharmacological profile (agonist/antagonist) in [35S]GTPγS binding” value was “agonist profile”. Besides, the “breakthrough time Mutated GPR17-IAM (Table 5)” value in test [3] came out at 7.08.
Turning to `CNc1nc(Cl)nc2c1ncn2[C@@H]1O[C@H](COP(=O)(O)OP(=O)(O)OP(=O)(O)O)[C@@H](O)[C@H]1O.N.N.N.N` [Compound 7, 2.-choro-N^6 - methyladenosine Triphospate], at wild type GPR17 [1] (Library A mixture), the “t/tc × 100, percentage” value is listed as 37.56%. Also, at wild type GPR17 [2], the “breakthrough time GPR17-IAM-II (Table 5)” value is reported as 4.50; the “t/tC × 100” value is 42.45%; the “t (min), breakthrough time” value is 4.50 min and 4.5 min. Also, the “pharmacological profile (agonist/antagonist) in [35S]GTPγS binding” value on wild type GPR17 [6] (wild-type GPR17) is “agonist profile”. Besides, the “breakthrough time Mutated GPR17-IAM (Table 5)” value in test [3] is 5.27.
With `CNc1nc(Cl)cc2c1ncn2[C@@H]1O[C@H](COP(=O)(O)OP(=O)(O)OP(=O)(O)O)[C@@H](O)[C@H]1O.N.N.N.N` [Compound 8, 2.-choro-3-deaza-N^6-- methyladenosine Triphospate], at wild type GPR17 [1] (Library A mixture), the “t/tc × 100, percentage” value was 45.05%. Also, on wild type GPR17 [2], the “breakthrough time GPR17-IAM-II (Table 5)” value came out at 4.77; the “t/tC × 100” value was found to be 45.00%; the “t (min), breakthrough time” value came out at 4.77 min. Further, on wild type GPR17 [6] (wild-type GPR17), the “pharmacological profile (agonist/antagonist) in [35S]GTPγS binding” value is recorded as “agonist profile”. The “increase of activity on replacement of 3-nitrogen by CH (8 versus 7)” value on wild type GPR17 [6] (wild-type GPR17, EC50 comparison) came out at 7 fold. The “breakthrough time Mutated GPR17-IAM (Table 5)” value in test [3] is 5.79.
As for `N.N.Nc1nc(Cl)nc2c1ncn2[C@H]1C[C@H](OP(=O)(O)O)[C@@H](COP(=O)(O)O)O1` [Compound 12], the “t/tc × 100, percentage” value at wild type GPR17 [1] (Library A mixture) amounted to 25.99%. On wild type GPR17 [2], the “breakthrough time GPR17-IAM-II (Table 5)” value worked out at 3.55; the “t/tC × 100” value is 33.49%; the “t (min), breakthrough time” value came out at 3.55 min. For the same compound, on wild type GPR17 [6] (wild-type GPR17), the “increase in [35S]GTPγS binding by compound alone” value is “did not induce any significant increase” and the “pharmacological profile (agonist/antagonist) in [35S]GTPγS binding” value is on record as “antagonist profile”. The “breakthrough time Mutated GPR17-IAM (Table 5)” value in test [3] is recorded as 3.54.
In the case of `N.N.N.O=c1[nH]c(=O)n([C@@H]2O[C@H](COP(=O)(O)OP(=O)(O)O)[C@@H](O)[C@H]2O)cc1I` [Compound 13], at wild type GPR17 [1] (Library A mixture), the “t/tc × 100, percentage” value is recorded as 16.54%. Besides, the “binding class from FAC-MS breakthrough” value on wild type GPR17 [1] is recorded as “weak binders”. At wild type GPR17 [2], the “breakthrough time GPR17-IAM-II (Table 5)” value was 2.79; the “t/tC × 100” value was 26.32%; the “t (min), breakthrough time” value is given as 2.79 min. At wild type GPR17 [6] (wild-type GPR17), the “pharmacological profile (agonist/antagonist) in [35S]GTPγS binding” value is on record as “agonist profile”. In test [3], the “breakthrough time Mutated GPR17-IAM (Table 5)” value turned out to be 2.51 and the “t (min), breakthrough time” value was determined as 2.51 min. The “change in affinity toward mutated” value in test [5] is listed as “a trend toward a reduced affinity”.
On to `CCCCC#Cc1cn([C@@H]2O[C@H](COP(=O)(O)OP(=O)(O)O)[C@@H](O)[C@H]2O)c(=O)[nH]c1=O` [Compound 14, 5-Hexynyluridine Diphosphate], for which, at wild type GPR17 [1] (Library A mixture), the “t/tc × 100, percentage” value was 19.67%. Further, the “binding class from FAC-MS breakthrough” value at wild type GPR17 [1] is given as “weak binders”. Moreover, at wild type GPR17 [2], the “breakthrough time GPR17-IAM-II (Table 5)” value was determined as 2.97; the “t/tC × 100” value is listed as 28.02%; the “t (min), breakthrough time” value is 2.97 min. In test [3], the “breakthrough time Mutated GPR17-IAM (Table 5)” value came out at 2.90.
On to `CNc1ncnc2c1ncn2[C@H]1C[C@H](OP(=O)(O)O)[C@@H](COP(=O)(O)O)O1.N.N` [MRS2179, MRS 2179], for which, at wild type GPR17 [1] (Library A mixture), the “t/tc × 100, percentage” value was 28.92%. The “t/tc × 100, percentage” value at wild type GPR17 [1] (Library A mixture, listed as MRS 2179) is given as 29%. In addition, on wild type GPR17 [1] (Library B mixture), the “t/tc × 100, percentage” value was 28% and 27.87%; the “t (min), breakthrough time of the ligand” value is on record as 3.40 min. In addition, on wild type GPR17 [2], the “breakthrough time GPR17-IAM-II (Table 5)” value stood at 3.62; the “t/tC × 100” value is 34.15%; the “t (min), breakthrough time” value amounted to 3.62 min. In test [3], the “breakthrough time Mutated GPR17-IAM (Table 5)” value amounted to 3.47 and the “t (min), breakthrough time” value stood at 3.47 min. The “profile at GPR17” value on wild type GPR17 [4] is given as “antagonists”. Moreover, the pharmacology entry in the test with P2Y receptors is listed as “P2Y1 competitive Antagonist”. The “change in affinity toward mutated” value in test [5] is “significant increase in affinity”.
As to `O=c1ccn([C@@H]2O[C@H](COP(=O)([O-])OP(=O)([O-])[O-])[C@@H](O)[C@H]2O)c(=O)[nH]1.[Na+].[Na+].[Na+]` [UDP, uridine diphosphate], the “t/tc × 100, percentage” value at wild type GPR17 [1] (Library A mixture) was 13% and 13.03%. For the same compound, on wild type GPR17 [1] (Library B mixture), the “t/tc × 100, percentage” value was 12% and 12.30%; the “t (min), breakthrough time of the ligand” value is listed as 1.50 min. Also, at wild type GPR17 [2], the “breakthrough time GPR17-IAM-II (Table 5)” value turned out to be 2.69; the “t/tC × 100” value worked out at 25.38%; the “t (min), breakthrough time” value turned out to be 2.69 min. Besides, in test [3], the “breakthrough time Mutated GPR17-IAM (Table 5)” value amounted to 2.15 and the “t (min), breakthrough time” value is 2.15 min. Besides, the “profile at GPR17” value on wild type GPR17 [4] was “agonist”. Also, the pharmacology result with P2Y receptors is given as “P2Y agonist”. The “change in affinity toward mutated” value in test [5] was “a trend toward a reduced affinity”.
